Measurements taken from US10231958B2, “Methods and compositions for enhancing chemotherapy” (THE BOARD OF REGENTS OF THE UNIVERSITY OF TEXAS SYSTEM, priority 2015, dated 2019).
≈ marks a conversion by molar mass, not a printed value. Entries after “also recorded” stand apart in the source; their conditions may differ.

Key:
[1] = tested on: MDA-MB231 xenograft implants; test: MDA-MB231 xenograft study; format: in vivo, mouse
Excerpt: The study was approved by the University of Texas Health Science Center at San Antonio Institutional Animal Care and Use Committee (IACUC) policy as outlined in protocol number 11024. The facility is operated in compliance with the Public Law 89-544 (Animal Welfare Act) and its amendments, Public Health Services Policy on Humane Care and Use of Laboratory Animals (PHS Policy) using the Guide for the Care and Use of Laboratory Animals (Guide) as the basis of operation. Selection of cyclophosphamide and sorafenib doses was based on previously published reports (Sun et al., 2010, J Int Med Res 38, 967-76; Wilhelm et al., 2004 Cancer Res 64, 7099-109). MDA-MB-231 cells were harvested by trypsinization, washed and re-suspended in serum-free medium. Thereafter, cells were mixed with matrigel (1:1), and approximately 5×10^6 cells were subcutaneously injected in the right flank of each mouse. When the average tumor volume reached about 100 mm^3, mice were randomized into groups of 8 animals each, and the following treatment protocol was implemented: Group 1 (control): 100 μL of saline (i.p.); Group 2: sorafenib (1 mg/kg; i.p.) for 9 days; Group 3: cyclophosphamide 0.1 g/kg on days 2, 4, 6 and 8; Group 4: Sorafenib+cyclophosphamide (combination of same above described regimens). All animals were sacrificed 5 days after the end of treatments (15th day of the treatment protocol). Body weight of mice was recorded weekly, and tumor size was measured thrice a week in two dimensions using a digital caliper. The tumor volume was calculated by the formula 0.5236 L1(L2)^2, where L1 is the long axis, and L2 is the short axis of the tumor. At the termination of the study, mice were euthanized; tumors were excised and a part was fixed in 10% phosphate-buffered formalin for H&E, Masson's staining and immunohistochemistry (IHC) analyses.

MDA-MB231 cells = test: Gene expression profiling (RNAseq) in MDA-MB231 cells; format: cell-based, human
Method: Human cancer cell-lines treated with different pharmaceutical compounds were profiled by RNA-seq protocol using Illumina HiSeq 2000 system (Illumina, San Diego, Calif.). RNA was harvested 0, 8 and 24 hours post treatment using the RNeasy protocol (Qiagen) and the purity of prepared RNA was determined using Agilent 2100 BioAnalyzer. Total RNA samples about […] were used for sequencing library preparation according to Illumina TruSeq Total RNA Sample Preparation Guide (Illumina Cat. #: RS-122-2201). Each library was bar-coded and then pooled for cluster generation and sequencing run with 100 bp paired-end (PE) sequencing protocol. Short read sequences from RNAseq were first aligned to UCSC hg19 genome build using TopHat2 algorithm (PMID:19289445) and then quantified for gene expression by HTSeq [Anders, 2014]. Genes with lower read counts (determined by examining read counts in non-exonic regions) were removed. Differential expression more than 2 fold was selected as differentially expressed genes (DEGs).
For those genes for which expression was higher than noise/background, significant change in expression compared to unexposed (0 h) control, ±2-fold change, was used as cut-off for induction/repression. The lists of genes with altered expression were analyzed using Ingenuity Systems (IPA, Ingenuity Pathway Analyzer, Qiagen), DAVID (PMID:19131956; PMID: 19033363), and Rock Breast Cancer Functional Genomic Database (PMID:20563840) analytical software (p<0.05; FDR<10%) to ensure a good coverage of both metabolic and transduction pathways (due to differences in pathways libraries with the databases). Only pathways related to biological processes/signaling were considered relevant, and the terms were grouped by similarity of the biological for presentation; disease related pathways were discarded. Transcription factor enrichment analysis was performed using the TFactS software (PMID:20215436), which uses an algorithm to compare potential transcription factors involved in the regulation of genes with the input lists. […]

Kc167 cells = test: Metabolomics of GSH metabolites in fly cells; format: cell-based, D. melanogaster; settings: MMS 40 μg/mL
Method: The 2.4×10^6 Kc167 or 2×10^6 MEFs were seeded using complete growth medium on Day 0 in a T-175 cell culture flask and were allowed to grow for three days. After treatments with MMS (40 μg/mL), cells were harvested and centrifuged at 8 and 24 hours, and washed using ice-cold PBS. The cell numbers were adjusted to 90×10^6 (Kc167) or 24×10^6 (MEF) and provided as 100 μL of packed cell pellet for metabolic profiling. Metabolomic profiling and data analysis was provided through mView service performed by Metabolon Inc., Durham, N.C. Five biological replicates of each group were used for analysis at each time point. In addition, detailed changes in nucleotide pools were measured in a separate set of experiments. Nucleotide quantification and Metabolomics Pathway Enrichment Analyses were performed through MetaboAnalyst 2.0 (Xia et al., 2012, Nucleic Acids Res 40(Web Server issue), W127-33; Xia et al., 2009, Nucleic Acids Res 37(Web Server issue), W652-60).

[2] = tested on: Kc167 cells, MEFs, and MDA-MB231 breast cancer cells; test: Cell viability (CellTiter-Glo); format: cell-based, D. melanogaster, mouse, human; settings: Drosophila melanogaster, MDA-MB-231, 24 h
Method: The D. melanogaster embryonic cell line Kc167 was grown in Schneider medium (Invitrogen, Carlsbad, Calif.) supplemented with 10% heat-inactivated (56° C./30 min) fetal bovine serum (FBS), penicillin and streptomycin at 22° C. in a humidified incubator. Primary MEFs were obtained by harvesting 14.5-day C57BL/6J embryos as previously described (Ravi et al., 2009, PLoS Genet 5, e1000527). Briefly, fetal liver and head were removed and the remainder of the embryo was mechanically disaggregated in plating medium. A suspension of single-cells was plated in DMEM (plus 10% FBS, 100 U/mL penicillin and 100 μg/mL streptomycin). MEFs were grown for two passages before freezing aliquots. Aliquots were taken and expanded as needed for each experiment. MDA-MB231, SkBr3 and MCF-7 breast cancer cells lines were obtained from ATCC and grown in DMEM supplemented with 10% inactivated FBS plus antibiotics in a 37° C. humidified incubator at […] atmosphere. Cells were kept and treated in the exponential phase of growing (60-70% confluence). […] DMSO concentrations were kept to a maximum of 0.1% for all experiments. Cell viability was assessed using CellTiter-Glo Luminescent Viability assay (Promega) in 384 or 96-well plates white-border clear-bottom plated cells. For caspase-3/7 activity, Caspase-Glo 3/7 Assay kits were used (Promega). For caspase assays, the cells were seeded in 96-well plates and assayed directly after treatments. Caspase-3/7 inhibitor (Z-DEVD-fmk) was used to ensure assay specificity. LDH release into culture medium was quantified by Cytotox-96 Non-Radioactive assay kit in agreement with instructions (Promega).

CNC(=O)c1cc(Oc2ccc(NC(=O)Nc3ccc(Cl)c(C(F)(F)F)c3)cc2)ccn1 [sorafenib, 4-[4-[[4-chloro-3-(trifluoromethyl)phenyl]carbamoylamino]phenoxy]-N-methyl-pyridine-2-carboxamide]
tumor growth, single agent ([1]; sorafenib 1 mg/kg i.p. 9 days, cyclophosphamide 0.1 g/kg days 2, 4, 6, 8): significantly decrease tumor growth | tumor growth, combination with cyclophosphamide ([1]; sorafenib 1 mg/kg i.p. plus cyclophosphamide 0.1 g/kg): synergize with cyclophosphamide | tumor volume at which growth was stabilized ([1]; sorafenib alone, 7 days of treatment): ~150 mm^3 | effect on cyclophosphamide-induced angiogenic response ([1]; sorafenib combined with cyclophosphamide): significant inhibition of cyclophosphamide-induced angiogenic response; also recorded: blocked cyclophosphamide-induced vessels formation | effect on NRF2 and UPR genes (MDA-MB231 cells; 5 μM sorafenib): lack of effect | effect on basal gene expression (VEGFA, HES1, MAML3, PLAT, ADAMST1) (MDA-MB231 cells; 5 μM sorafenib): decreased basal expression of several genes | effect on MMS-induced inflammatory/invasive genes (MDA-MB231 cells; 5 μM sorafenib plus MMS): blocked several of the aforementioned MMS-induced inflammatory/invasive genes

COS(C)(=O)=O [MMS, methyl-methanesulfonate]
increase in methyl-GSH (Kc167 cells): 300 fold | IC90 [2]: 80 µg/mL (≈ 726 µM)
